The supplement of paper PMC8671470

Key:
Conditions in all cases: 72 h
NOMO-1 [1] = tested on: NOMO-1
Summary of the method: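 Each of fifteen myeloid leukaemia cell lines was seeded in RPMI 1640 at a density titrated to its linear growth range. The cells were incubated for 72 h at 37 °C and 5% CO2 with compounds at five tenfold doses from 1 to 10,000 nM, in duplicate. After ATP luminescence was normalised to vehicle and to a positive control at 10 µM, four-parameter log-logistic curves were fitted. These curves gave the IC50.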

HL-60 [2] = test: cell viability (% survival relative to DMSO control); higher = less cytotoxic
Summary of the method: (§1)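 Four-parameter log-logistic fits in drc and PharmacoGx supplied area under the curve where it is given. Underlying viability came from CellTiter-Glo, normalised to DMSO and proteasome-inhibitor wells, with the proteasome inhibitor at 10 μM. HL-60 cells in RPMI 1640 plus 10% FBS had been rescreened against the full library at five tenfold concentrations of 1–10,000 nM, in duplicate on 384-well plates, with DMSO or 100 nM of one of three metabolic inhibitors, for 72 h at 37 °C, 5% CO2.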

BV-173 = test: cell viability (% survival relative to DMSO control, bortezomib = 0%); higher = less cytotoxic
Summary of the method: (§2)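 Seeding density for each of the 10 AML and 5 CML cell lines was titrated to the linear growth range. Cells went into 384-well plates pre-printed in duplicate with compounds at 1, 10, 100, 1000 or 10000 nM and were held for 72 h at 37 °C with 5% CO2. CellTiter-Glo luminescence then provided the readout. Percent survival is expressed relative to vehicle at 100% and a 10 µM positive control at 0%, averaged over duplicates.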

HEL = test: as above
Summary of the method: as §2

HL-60 [3] = test: as above
Summary of the method: as §2

K-562 = test: as above
Summary of the method: as §2

KCL-22 = test: as above
Summary of the method: as §2

KG-1 = test: as above
Summary of the method: as §2

KU-812 = test: as above
Summary of the method: as §2

LAMA-84 = test: as above
Summary of the method: as §2

ML-2 = test: as above
Summary of the method: as §2

MOLM-13 = test: as above
Summary of the method: as §2

MV4-11 = test: as above
Summary of the method: as §2

Mono-Mac-6 = test: as above
Summary of the method: as §2

NOMO-1 [4] = test: as above
Summary of the method: as §2

SHI-1 = test: as above
Summary of the method: as §2

THP-1 = test: as above
Summary of the method: as §2

HL-60 [5] = test: area under dose-response curve (viability, 1 nM-10 uM) (fraction (0-1)); higher = more sensitive
Summary of the method: as §1

O=C(Oc1ccc([N+](=O)[O-])cc1)N1CCC(C(O)(c2ccc3c(c2)OCO3)c2ccc3c(c2)OCO3)CC1 [JZL184]
Conditions | IC50 (cell viability) [µM]
NOMO-1 [1] | > 10

cell viability [%], HL-60 [2]
Conditions | 0.001 µM | 0.01 µM | 0.1 µM | 1 µM | 10 µM
co-treatment: AZD3965 100 nM | 110 | 92.8 | 104 | 98.7 | 105.1
co-treatment: DMSO vehicle | 100 | 93.8 | 100.9 | 101 | 97.3
co-treatment: GSK2194069 100 nM | 103 | 99.6 | 99.2 | 101 | 107
co-treatment: pictilisib 100 nM | 83.1 | 89.4 | 97.2 | 95.5 | 99

Conditions | area under dose-response curve, co-treatment: AZD3965 100 nM | area under dose-response curve, co-treatment: DMSO vehicle | area under dose-response curve, co-treatment: GSK2194069 100 nM | area under dose-response curve, co-treatment: pictilisib 100 nM | cell viability, 1 nM [%] | cell viability, 10 nM [%] | cell viability, 100 nM [%] | cell viability, 1000 nM [%] | cell viability, 10000 nM [%]
BV-173 | – | – | – | – | 95.2 | 96.5 | 90.7 | 92.9 | 69.4
HEL | – | – | – | – | 97.3 | 114 | 120 | 90.6 | 97.4
HL-60 [3] | – | – | – | – | 96.9 | 98.8 | 105 | 103 | 101
HL-60 [5] | < 0.0301 | < 0.0301 | < 0.0301 | < 0.0301 | – | – | – | – | –
K-562 | – | – | – | – | 92.8 | 110 | 106 | 87 | 95.7
KCL-22 | – | – | – | – | 90.8 | 108 | 112 | 105 | 92.3
KG-1 | – | – | – | – | 101 | 107 | 100 | 104 | 94
KU-812 | – | – | – | – | 101 | 102 | 112 | 90.5 | 85.8
LAMA-84 | – | – | – | – | 97 | 102 | 95.9 | 89.7 | 96.6
ML-2 | – | – | – | – | 102 | 112 | 114 | 104 | 98.9
MOLM-13 | – | – | – | – | 92.2 | 100 | 117 | 107 | 92.9
MV4-11 | – | – | – | – | 94.9 | 95.7 | 98.9 | 94.5 | 88.5
Mono-Mac-6 | – | – | – | – | 90.2 | 111 | 104 | 103 | 92.3
NOMO-1 [4] | – | – | – | – | 101 | 99.5 | 102 | 102 | 95.2
SHI-1 | – | – | – | – | 110 | 97.9 | 129 | 103 | 90.7
THP-1 | – | – | – | – | 97.2 | 103 | 95.4 | 101 | 96.2
